Assay results: patent US6716838B1, “Substituted polycyclic aryl and heteroaryl uracils as anticoagulative agents” (Pharmacia Corporation, priority 1999, dated 2004)

Experiments:
Format in all cases: biochemical
[1] = molecular target: T1, recombinant soluble tissue factor and recombinant human factor VIIa (Homo sapiens, UniProt P08709); assay: TF-VIIa Assay; conditions: chromogenic substrate, 60 min at room temperature, pH 8.0
T1 construct: purchased American Diagnostica, Greenwich Conn; (factor VIIa); soluble TF made in house; host or cells: E. coli (soluble TF only)
T1 sequence (P08709 213-466 limits assumed): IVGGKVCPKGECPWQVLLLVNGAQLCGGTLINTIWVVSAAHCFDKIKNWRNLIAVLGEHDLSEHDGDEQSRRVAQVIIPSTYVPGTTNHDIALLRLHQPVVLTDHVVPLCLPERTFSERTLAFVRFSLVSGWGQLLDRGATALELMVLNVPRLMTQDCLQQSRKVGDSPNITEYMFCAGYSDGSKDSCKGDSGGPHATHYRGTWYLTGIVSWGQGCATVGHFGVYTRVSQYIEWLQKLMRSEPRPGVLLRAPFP
T1 sequence (P08709 61-212 limits assumed): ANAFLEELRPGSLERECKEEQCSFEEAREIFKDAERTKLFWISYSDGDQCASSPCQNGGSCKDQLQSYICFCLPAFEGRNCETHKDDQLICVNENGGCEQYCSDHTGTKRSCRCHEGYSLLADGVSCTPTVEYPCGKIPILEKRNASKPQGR
T1 sequence (P13726 33-251 partner limits assumed): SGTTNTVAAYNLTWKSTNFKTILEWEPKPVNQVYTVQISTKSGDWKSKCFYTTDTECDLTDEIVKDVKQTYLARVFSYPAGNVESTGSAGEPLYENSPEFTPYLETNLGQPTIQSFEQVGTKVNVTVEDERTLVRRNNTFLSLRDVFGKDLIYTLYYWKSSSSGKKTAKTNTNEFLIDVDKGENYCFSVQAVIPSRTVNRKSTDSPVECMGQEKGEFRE
Protocol: In this assay 100 nM recombinant soluble tissue factor and 2 nM recombinant human factor VIIa are added to a 96-well assay plate containing 0.4 mM of the substrate, N-Methylsulfonyl-D-phe-gly-arg-p-nitroaniline and either inhibitor or buffer (5 mM CaCl2, 50 mM Tris-HCl, pH 8.0, 100 mM NaCl, 0.1% BSA). The reaction, in a final volume of 100 ul is measured immediately at 405 nm to determine background absorbance. The plate is incubated at room temperature for 60 min, at which time the rate of hydrolysis of the substrate is measured by monitoring the reaction at 405 nm for the release of p-nitroaniline. Percent inhibition of TF-VIIa activity is calculated from OD405 nm value from the experimental and control sample.
(§1) Recombinant soluble TF, consisting of amino acids 1-219 of the mature protein sequence was expressed in E. coli and purified using a Mono Q Sepharose FPLC. Recombinant human VIIa was purchased from American Diagnostica, Greenwich Conn. and chromogenic substrate N-Methylsulfonyl-D-phe-gly-arg-p-nitroaniline was prepared by American Peptide Company, Inc., Sunnyvale, Calif. Factor Xa was obtained from Enzyme Research Laboratories, South Bend Ind., thrombin from Calbiochem, La Jolla, Calif., and trypsin and L-BAPNA from Sigma, St Louis Mo. The chromogenic substrates S-2765 and S-2238 were purchased from Chromogenix, Sweden.

human thrombin = human thrombin (Homo sapiens, UniProt P00734); assay: Thrombin Assay; conditions: chromogenic substrate, 60 min at room temperature, pH 8.0; read-out: Thrombin II IC50
Protocol: (§2) 0.28 nM human thrombin and 0.06 mM H-D-Phenylalanyl-L-pipecolyl-L-argioine-p-nitroaniline dihydrochloride are added to a 96-well assay plate containing either inhibitor or buffer (50 mM Tris-HCl, pH 8.0, 100 mM NaCl, 0.1% BSA). The reaction, in a final volume of 100 ul is measured immediately at 405 nm to determine background absorbance. The plate is incubated at room temperature for 60 min, at which time the rate of hydrolysis of the substrate is measured by monitoring the reaction at 405 nm for the release of p-nitroaniline. Percent inhibition of thrombin activity is calculated from OD405 nm value from the experimental and control sample.
as §1

[2] = molecular target: T2, trypsin, type IX from porcine pancreas (Sus scrofa, UniProt P00761); assay: Trypsin Assay; conditions: substrate L-BAPNA, 60 min at room temperature, pH 8.0; read-out: Trypsin II IC50
T2 construct: purchased Sigma, St Louis Mo. type IX; host or cells: porcine pancreas
T2 sequence (P00761 9-231): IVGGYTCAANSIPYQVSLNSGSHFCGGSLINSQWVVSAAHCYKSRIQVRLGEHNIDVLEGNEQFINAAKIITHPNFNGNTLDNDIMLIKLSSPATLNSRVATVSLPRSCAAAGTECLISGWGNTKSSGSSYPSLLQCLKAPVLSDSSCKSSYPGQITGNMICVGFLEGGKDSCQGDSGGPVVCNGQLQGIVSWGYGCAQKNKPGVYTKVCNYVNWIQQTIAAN
Protocol: 5 ug/ml trypsin, type IX from porcine pancreas and 0.375 mM N-α-Benzoyl-L-arginine-p-nitroanilide (LBAPNA) are added to a 96-well assay plate containing either inhibitor or buffer (50 mM Tris-HCl, pH 8.0, 100 mM NaCl, 0.1% BSA). The reactions, in a final volume of 100 ul are measured immediately at 405 nm to determine background absorbance. The plate is incubated at room temperature for 60 min, at which time the rate of hydrolysis of the substrate is measured by monitoring the reaction at 405 nm for the release of p-nitroaniline. Percent inhibition of trypsin activity is calculated from OD405 nm value from the experimental and control sample.
as §1

human factor Xa = molecular target: T3, human factor Xa (Homo sapiens, UniProt P00742); assay: Xa Assay; conditions: substrate S-2765, 60 min at room temperature, pH 8.0
T3 construct: leads from XII to XIIa to XIa to IXa and to the conversion of X to Xa; purchased Enzyme Research Laboratories, South Bend Ind
T3 sequence (P00742 235-488 limits assumed): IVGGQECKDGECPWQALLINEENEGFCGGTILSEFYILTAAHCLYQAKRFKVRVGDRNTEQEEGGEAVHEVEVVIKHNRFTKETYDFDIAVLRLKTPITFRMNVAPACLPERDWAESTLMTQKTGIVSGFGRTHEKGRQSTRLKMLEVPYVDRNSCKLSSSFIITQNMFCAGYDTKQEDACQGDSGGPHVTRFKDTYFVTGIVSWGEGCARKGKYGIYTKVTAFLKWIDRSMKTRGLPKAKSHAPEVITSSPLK
T3 sequence (P00742 41-179 limits assumed): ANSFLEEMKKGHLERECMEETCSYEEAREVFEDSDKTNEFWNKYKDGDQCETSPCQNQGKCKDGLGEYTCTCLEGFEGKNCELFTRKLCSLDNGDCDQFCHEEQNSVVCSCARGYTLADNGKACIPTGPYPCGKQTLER
Protocol: as §2, with “0.3 nM” for “0.28 nM”, “human factor Xa” for “human thrombin”, “and 0.15” for “and 0.06”, “mM N-α-Benzyloxycarbonyl-D-arginyl-L-glycyl-L-arginine-p-nitroaniline-dihydrochloride (S-2765)” for “mM H-D-Phenylalanyl-L-pipecolyl-L-argioine-p-nitroaniline dihydrochloride”, “of Xa” for “of thrombin”
as §1

IC50 [1] [nM] | IC50 (human thrombin) [nM] | IC50 [2] [nM] | IC50 (human factor Xa) [nM] | Structure (SMILES)
> 100000 | 13000 | 400 | 25600 | N=C(N)c1ccc(CNC(=O)Cn2c(=O)c(NS(=O)(=O)Cc3ccccc3)cn(Cc3ccccc3)c2=O)cc1 [Example 1]
12900 | 300 | 200 | 200 | N=C(N)NCCC[C@H](NC(=O)Cn1c(=O)c(NS(=O)(=O)Cc2ccccc2)cn(Cc2ccccc2)c1=O)C(=O)c1nccs1 [Example 2]
